Data on two compounds can be found in US6596749B2, “Aminotriazole compounds” (Les Laboratoires Servier, priority 1999, dated 2003).

Broadly, the IC50 is the point on the concentration scale where inhibition reaches its midpoint. The low end stands for greater potency, the high end for weaker potency.

One assay concerns obese ob/ob mouse. Kind of assay: Effect on food intake and weight development in the obese mouse. The format is in vivo. The conditions noted are these: female ob/ob C57B1/6J mice; for Food intake % variation (D1), Treated: D1, compared with the basal food intake; for Body weight % variation (D4/D0): between first and last day of treatment. Here is the method:
The compounds of the invention were administered in vivo to the obese ob/ob mouse in order to evaluate their influence on food intake and weight development. The animals used are 13- to 18-week-old female ob/ob C57B1/6J mice. They are divided into groups each comprising 4 animals per cage, the cages being fitted with a grating floor, and the mice having free access to food.
Before the experiments, the animals are conditioned for a period ranging from 2 to 3 weeks until their food consumption has stabilised. The experiments may be summarised as follows:
The test compounds are dissolved, immediately before use, in water, 0.9% sodium chloride, propylene glycol or dimethyl sulphoxide, depending upon their solubility, and are administered intraperitoneally (IP), in a volume of 2.5 ml/kg.
The parameters measured are the food intake and the body weight.
The results are expressed as: […]
percentage variation in food intake under treatment compared with the basal food intake;
percentage variation in body weight between the first and last day of treatment.

The target in another assay is T1, Y5 receptor (Homo sapiens, UniProt Q15761).
T1 sequence (Q15761 1-445): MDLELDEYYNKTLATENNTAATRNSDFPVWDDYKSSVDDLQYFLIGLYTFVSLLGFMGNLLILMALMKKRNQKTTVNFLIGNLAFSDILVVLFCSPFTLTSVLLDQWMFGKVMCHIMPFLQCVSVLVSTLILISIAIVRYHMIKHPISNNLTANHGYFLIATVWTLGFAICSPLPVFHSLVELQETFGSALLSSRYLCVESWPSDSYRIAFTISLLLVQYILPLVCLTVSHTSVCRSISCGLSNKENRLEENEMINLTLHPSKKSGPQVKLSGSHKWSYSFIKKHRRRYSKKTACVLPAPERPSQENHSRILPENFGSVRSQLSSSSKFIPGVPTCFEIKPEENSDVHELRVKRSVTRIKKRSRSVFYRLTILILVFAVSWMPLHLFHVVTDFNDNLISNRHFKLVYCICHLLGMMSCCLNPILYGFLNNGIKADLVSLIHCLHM
Kind of assay: In vitro affinity for NPY receptors, [125I]-PYY competition binding, Y5 receptor. As to conditions: radioligand [125I]-PYY 15 to 65 pM. Here is the method: The capacity of the compounds of the invention to bind to NPY receptors was measured on various cell lines, each expressing one of the receptor sub-types studied. Competition binding experiments were carried out using the peptide [^125I]-PYY as radioligand at concentrations ranging from 15 to 65 pM. The non-specific fraction is measured in the presence of a concentration of 1 μM NPY. The cells are incubated for a period ranging from 1 to 2 hours depending upon the lines, and the radioactivity is collected after filtration over a GF/C filter treated with 0.1% PEI, before being measured.

Regarding `COc1ccc(S(=O)(=O)NNC(=O)c2ccc(Nc3nc(-c4ccccc4)n(-c4cccc(C(F)(F)F)c4)n3)cc2)cc1` [Example 6], in the assay on obese ob/ob mouse (5 mg/kg IP twice daily), the “Food intake % variation (D1), Treated” value is reported as −34% and the “Body weight % variation (D4/D0)” value was −11.2%. In addition, the IC50 on Y5 receptor came out at 7 nM.
With `O=C(NNS(=O)(=O)c1ccccc1)c1ccc(Nc2nc(-c3ccccc3)n(-c3cccc(C(F)(F)F)c3)n2)cc1` [Example 1, N′-[4-({5-Phenyl-1-[3-(trifluoromethyl)phenyl]-1H-1,2,4-triazol-3-yl}-amino)benzoyl]benzenesulphonohydrazide], in the assay on obese ob/ob mouse (1 mg/kg IP twice daily), the “Food intake % variation (D1), Treated” value is recorded as −45% and the “Body weight % variation (D4/D0)” value is recorded as −6.4%. This compound also displayed an IC50 at Y5 receptor of 80 nM.
